Reference: patent US6828341B2, “Cyclohexylamine derivatives as subtype selective N-Methyl-D-Aspartate antagonists” (Warner-Lambert Company, priority 2001, dated 2004)
Where a name gives a salt, the structure may show the parent alone.

Legend:
[1] = target: T1, NR1A/NR2B NMDA receptor subtype (Rattus norvegicus, UniProt P35439+Q00960); experiment: [3H]Ifenprodil binding assay (IFPNR); conditions: displacement of 4 nM [3H]-ifenprodil, adult rat forebrain membranes, 2 hours at room temperature, pH 7.4
T1 construct: membrane fraction was prepared from frozen adult rat forebrains; tissue Zivic-Miller Laboratories, Inc; host or cells: adult rat forebrain, washed buffy coat membrane fraction
T1 sequence (Q00960 27-1482, other chains not shown): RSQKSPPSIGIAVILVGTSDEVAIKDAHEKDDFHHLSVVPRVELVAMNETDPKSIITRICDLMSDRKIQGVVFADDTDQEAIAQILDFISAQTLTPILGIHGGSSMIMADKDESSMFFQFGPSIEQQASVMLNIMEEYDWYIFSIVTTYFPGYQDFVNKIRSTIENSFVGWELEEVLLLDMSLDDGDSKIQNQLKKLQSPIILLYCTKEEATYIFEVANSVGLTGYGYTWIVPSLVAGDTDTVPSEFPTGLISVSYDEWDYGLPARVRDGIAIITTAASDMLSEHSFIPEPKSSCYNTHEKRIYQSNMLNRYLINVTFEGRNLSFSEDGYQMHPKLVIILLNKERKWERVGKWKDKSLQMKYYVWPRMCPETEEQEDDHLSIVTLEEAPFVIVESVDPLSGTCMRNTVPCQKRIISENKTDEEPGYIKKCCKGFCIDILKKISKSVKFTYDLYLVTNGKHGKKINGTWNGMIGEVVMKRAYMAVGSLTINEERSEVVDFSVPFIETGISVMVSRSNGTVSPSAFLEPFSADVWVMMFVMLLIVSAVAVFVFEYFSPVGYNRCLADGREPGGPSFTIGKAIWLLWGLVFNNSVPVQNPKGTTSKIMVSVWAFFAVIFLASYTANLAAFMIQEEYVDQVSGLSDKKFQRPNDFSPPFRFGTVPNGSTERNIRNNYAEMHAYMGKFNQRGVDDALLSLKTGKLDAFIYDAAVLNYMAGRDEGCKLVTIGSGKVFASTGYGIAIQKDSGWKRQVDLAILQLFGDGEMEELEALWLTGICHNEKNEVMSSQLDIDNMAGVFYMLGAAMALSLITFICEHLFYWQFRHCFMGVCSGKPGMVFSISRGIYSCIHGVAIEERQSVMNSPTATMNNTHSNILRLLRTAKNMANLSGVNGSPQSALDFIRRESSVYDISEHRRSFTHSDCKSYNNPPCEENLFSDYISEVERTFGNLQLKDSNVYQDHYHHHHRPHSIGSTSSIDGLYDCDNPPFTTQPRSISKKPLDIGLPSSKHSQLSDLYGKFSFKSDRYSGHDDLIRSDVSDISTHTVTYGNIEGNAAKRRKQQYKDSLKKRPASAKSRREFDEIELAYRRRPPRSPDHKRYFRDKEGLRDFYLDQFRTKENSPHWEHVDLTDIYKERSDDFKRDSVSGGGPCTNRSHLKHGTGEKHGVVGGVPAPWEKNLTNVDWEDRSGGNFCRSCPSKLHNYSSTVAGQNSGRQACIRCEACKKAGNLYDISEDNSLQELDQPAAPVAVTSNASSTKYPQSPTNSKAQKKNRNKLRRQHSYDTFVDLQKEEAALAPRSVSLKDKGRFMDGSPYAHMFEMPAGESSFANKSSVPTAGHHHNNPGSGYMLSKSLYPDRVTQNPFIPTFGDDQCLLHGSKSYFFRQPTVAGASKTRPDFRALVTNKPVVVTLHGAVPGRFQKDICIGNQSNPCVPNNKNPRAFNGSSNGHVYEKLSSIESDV
Method: (b) [^3H]Ifenprodil Binding Assay (IFPNR) Protocol:
Ifenprodil, [phenyl-^3H]-(specific activity, 66.2 Ci/mmol) was purchased from Dupont NEN Research Products (Boston, Mass.). Ifenprodil tartrate was purchased from Research Biochemicals International (Natick, Mass.). HEPES, glutamate, and glycine were purchased from Sigma Chemical Co. (St. Louis, Mo.).
All buffers and reagents used in assay incubations or to dissolve drugs were prepared using water purified through a Milli-Q reverse osmosis system (Millipore Corp., Bedford, Mass.) and treated with UV emissions. Prior to use in the assays buffers were further filtered through a sterile Corning filtration unit (Corning Glass Works, Corning, N.Y.) containing a 0.2 micron filter. Buffer used to rinse the membranes on the assay filters was prepared with purified water, but was not refiltered and was stored no longer than 5 days. Stock solutions of the drugs (usually 10 mM) were dissolved in 20 mM HEPES-KOH buffer pH 7.4 (assay buffer) with the addition of from 1 to 5 μL of glacial AcOH, if needed to keep them in solution. Eliprodil was used as the reference NMDA antagonist. A stock solution of eliprodil was prepared and was buffered with the addition of 10% DMSO. All subsequent dilutions from the stock solution were made in buffer.
An extensively washed buffy coat membrane fraction was prepared from frozen adult rat forebrains (Zivic-Miller Laboratories, Inc., Zelienople, Pa.) as described by Coughenour L. L., Cordon J. J., J. Phannacol. Exp. Ther., 1997;280:584-592, and stored at −80° C. On the day of the assay, pellets of the frozen membrane fractions were resuspended in 35 mL of assay buffer at pH 7.4 using a POLYTRON (Kinematica A.G. Company, Littau, Switzerland) mixer at setting 6. After incubation at 37° C. for 30 minutes in a shaking water bath, the homogenate was centrifuged 40,000×g for 10 minutes at 4° C. The pellets were resuspended in fresh buffer and centrifuged 3 more times before final suspension for use in the assay.
Triplicate incubations were carried out in a volume of 0.5 mL in 1.3 mL polypropylene tubes (Marsh Biomedical Products Inc., Rochester, N.Y.) for 2 hours at room temperature. Incubations contained invention compounds, membranes (100-200 μg protein) and 4 nM [^3H]-ifenprodil in 20 mM HEPES-KOH buffer, pH 7.4 (assay buffer). Assays were started by addition of the membranes. Bound radioligand was separated by filtration under reduced pressure using a TOMTEC Mach II, 96 well cell harvester (Tomtec Inc, Orange, Conn.). Filtration was through Whatman GF/B glass fiber filters (Whatman Ltd., Maidstone, England), which had been soaked for at least 15 minutes in 0.3% polyethylenimine and allowed to air dry. The filters were rinsed with 3 mL of ice cold assay buffer within 6 seconds. Air was allowed to pass through the filters for an additional 10 seconds to remove residual moisture. The filter mat was supported on a cold (−20° C.) TEFLON (E. I. Du Pont de Nemours and Company, Wilmington, Del.) coated support, and filters from individual wells were separated and placed in Mini Poly-Q vials (Beckman Instruments Inc., Fullerton, Calif.) and filled with 4 mL of scintillation cocktail (Beckman Ready Protein^+). Radioactivity retained on the filter was determined by liquid scintillation spectrophotometry. Nonspecific binding was defined as the binding in the presence of 1 mM ifenprodil. 90% of the total binding of ifenprodil was specific binding at the NR1A/NR2B NMDA receptor subtype active site (as opposed to binding at a remote site).
Binding curves were statistically analyzed for a best one- or two-site competition fit using GRAPHPAD PRISM software (GraphPad Software Inc., San Diego, Calif.), a computer program used to analyze and graph scientific data. The normalized data was fitted by nonweighted nonlinear regression to either [formula]
Control data was entered as 100%, and no parameters were constrained. […]

| Structure (SMILES) | melting point [°C] | IC50 [1] [nM] |
| --- | --- | --- |
| Cc1oc(-c2ccccc2)cc1CN(C)[C@H]1CC[C@H](c2ccc3[nH]c(=O)oc3c2)CC1 (as salt: hydrochloride) [Example 2, trans-6-{4-[Methyl-(2-methyl-5-phenyl-furan-3-ylmethyl)-amino]-cyclohexyl}-3H-benzoxazol-2-one] | 176 to 183 |  |
| CN(CC1CC(c2ccc3[nH]c(=O)oc3c2)=NO1)[C@H]1CC[C@H](c2ccccc2)CC1 (relative stereo) (as salt: hydrochloride) [Example 1, trans-6-(5-{[Methyl-(4-phenyl-cyclohexyl)-amino]-methyl}-4,5-dihydro-isoxazol-3-yl)-3H-benzoxazol-2-one] | 270 to 274 |  |
| O=C1OC(CNC2CCC(c3ccc(F)cc3)CC2)CN1c1ccc2[nH]c(=O)oc2c1 (stereo not drawn) [Example 4a, trans-6-{5-[4-(4-Fluoro-phenyl)-cyclohexylamino]-methyl-2-oxo-oxazolindin-3-yl}-3H-benzoxazol-2-one] |  | > 1000 |
| CN(CC1CN(c2ccc3[nH]c(=O)oc3c2)C(=O)O1)C1CCC(c2ccc(F)cc2)CC1 (stereo not drawn) [Example 4b, trans-6-(5-{[4-(4-Fluoro-phenyl)-cyclohexyl]-methyl-amino}-methyl-2-oxo-oxazolindin-3-yl)-3H-benzoxazol-2-one] |  | > 1000 |

Continued by falling IC50 [1], values first:

| melting point [°C] | IC50 [1] [nM] | Structure (SMILES) |
| --- | --- | --- |
|  | 6670 | Cc1oc(-c2ccccc2)cc1CN(C)[C@H]1CC[C@H](c2ccc3[nH]c(=O)oc3c2)CC1 [Example 2, trans-6-{4-[Methyl-(2-methyl-5-phenyl-furan-3-ylmethyl)-amino]-cyclohexyl}-3H-benzoxazol-2-one] |
|  | 5900 | CN(CC1CC(c2ccc3[nH]c(=O)oc3c2)=NO1)[C@H]1CC[C@H](c2ccccc2)CC1 (relative stereo) [Example 1, trans-6-(5-{[Methyl-(4-phenyl-cyclohexyl)-amino]-methyl}-4,5-dihydro-isoxazol-3-yl)-3H-benzoxazol-2-one] |
| 246 to 248 | 848 | Cc1sc(-c2ccccc2)nc1CN(C)[C@H]1CC[C@H](c2ccc3[nH]c(=O)oc3c2)CC1 [Example 5b, trans-6-{4-[Methyl-(5-methyl-2-phenyl-thiazol-4-ylmethyl)-amino]-cyclohexyl}-3H-benzoxazol-2-one] |
|  | 394 | CN(C[C@@H]1CN(c2ccccc2)C(=O)O1)[C@H]1CC[C@H](c2ccc3[nH]c(=O)oc3c2)CC1 [Example 3b, trans-(R)-6-{4-[Methyl-(2-oxo-3-phenyl-oxazolidin-5-ylmethyl)-amino]-cyclohexyl}-3H-benzoxazol-2-one] |
| 109 to 114 | 391 | CN(CC1CC(c2ccc(F)cc2)=NO1)[C@H]1CC[C@H](c2ccc3[nH]c(=O)oc3c2)CC1 (relative stereo) [Example 6b, trans-6-(4-{[3-(4-Fluoro-phenyl)-4,5-dihydro-isoxazol-5-ylmethyl]-methyl-amino}-cyclohexyl)-3H-benzoxazol-2-one] |
